Assay results reported in patent US20260124184A1, “ONCE DAILY ALDOSTERONE SYNTHASE INHIBITOR (R)-(+)-5-(P-CYANOPHENYL)-5,6,7,8-TETRAHYDROIMIDAZO[L,5-A]PYRIDINE” (priority 2022, published 2026).
Read-outs that look alike come from different tables or passages of the source.

How the values were obtained:
[1] = system: patients with primary aldosteronism
Description: (§1) A double-blind, randomized, Phase 2 trial was conducted between November 2019 and June 2022 at 11 centres in Italy, Switzerland and the Netherlands (NCT04007406). […] Patients requiring fixed-dose antihypertensive therapy continued treatment throughout the study; steroid therapies, β-adrenergic and renin-angiotensin-aldosterone system blockers were not permitted. At 14-day intervals, office blood pressures were recorded and blood samples were taken for measurement of steroid and peptide hormones and electrolytes at a central laboratory.

[2] = system: patients with primary aldosteronism; remark: listed apart in the source
Description: as §1
Blood pressure and pulse rate were measured at each visit after a >15-minute rest in sitting position. Blood pressure and pulse rate were measured using a locally calibrated and validated automated oscillometric device (e.g., Omron Healthcare). An adapted wrap cuff was placed on the dominant arm. Three repeat measurements with a 10-minute interval were recorded; the average of the 2nd and 3rd measurements were study relevant.
For all efficacy endpoints, changes from baseline were calculated from linear models and accompanied by 95% confidence intervals and p values. Log-transformed values were used for changes in ARR. The full analysis set (FAS) and safety set were defined as all randomized patients who received at least one dose of study drug.

[3] = each dose arm, sustained over active treatment period
[4] = 4 mg once daily, n=10, Day 1 (baseline)
[5] = 4 mg once daily, n=10, Day 70 (after placebo withdrawal)
[6] = 8 mg once daily, n=12, Day 1 (baseline)
[7] = 8 mg once daily, n=12, Day 70 (after placebo withdrawal)

“(R)-(+)-5-(p-cyanophenyl)-5,6,7,8-tetrahydroimidazolium[1,5-a]pyridine dihydrogen phosphate [dexfadrostat phosphate]” was tested, and the “plasma potassium concentration, mean” value ([1]; baseline potassium <3.6 mmol/L, 8 mg QD, Day 42) was 4.0 mmol/L, the “plasma potassium concentration, mean” value ([1]; baseline potassium <3.6 mmol/L, 8 mg QD, Day 56) was 4.0 mmol/L and the “plasma potassium concentration, mean” value ([1]; baseline potassium <3.6 mmol/L, 8 mg QD, Day 70 (placebo withdrawal)) was 3.7 mmol/L. For the same substance, the “plasma potassium concentration, mean” value ([1]; baseline potassium <3.6 mmol/L, 12 mg QD, Day 1 (baseline)) was 3.3 mmol/L, the “plasma potassium concentration, mean” value ([1]; baseline potassium <3.6 mmol/L, 12 mg QD, Day 14) was 3.9 mmol/L and the “plasma potassium concentration, mean” value ([1]; baseline potassium <3.6 mmol/L, 12 mg QD, Day 28) was 4.0 mmol/L. The “plasma potassium concentration, mean” value ([1]; baseline potassium <3.6 mmol/L, 12 mg QD, Day 42) was 4.1 mmol/L, the “plasma potassium concentration, mean” value ([1]; baseline potassium <3.6 mmol/L, 12 mg QD, Day 56) was 3.8 mmol/L and the “plasma potassium concentration, mean” value ([1]; baseline potassium <3.6 mmol/L, 12 mg QD, Day 70 (placebo withdrawal)) was 3.7 mmol/L. For the same substance, the “plasma potassium concentration, mean” value ([1]; baseline potassium ≤3.0 mmol/L, all doses QD, Day 1 (baseline)) was 2.9 mmol/L, the “plasma potassium concentration, mean” value ([1]; baseline potassium ≤3.0 mmol/L, all doses QD, Day 14) was 3.9 mmol/L and the “plasma potassium concentration, mean” value ([1]; baseline potassium ≤3.0 mmol/L, all doses QD, Day 28) was 3.9 mmol/L. The “plasma potassium concentration, mean” value ([1]; baseline potassium ≤3.0 mmol/L, all doses QD, Day 42) was 4.0 mmol/L, the “plasma potassium concentration, mean” value ([1]; baseline potassium ≤3.0 mmol/L, all doses QD, Day 56) was 3.9 mmol/L and the “plasma potassium concentration, mean” value ([1]; baseline potassium ≤3.0 mmol/L, all doses QD, Day 70 (placebo withdrawal)) was 3.5 mmol/L. For the same substance, the “plasma potassium concentration, mean” value ([1]; baseline potassium ≥3.6 mmol/L, 4 mg QD, Day 1 (baseline)) was 3.8 mmol/L, the “plasma potassium concentration, mean” value ([1]; baseline potassium ≥3.6 mmol/L, 4 mg QD, Day 14) was 4.6 mmol/L and the “plasma potassium concentration, mean” value ([1]; baseline potassium ≥3.6 mmol/L, 4 mg QD, Day 28) was 4.0 mmol/L. For the same substance, the “plasma potassium concentration, mean” value ([1]; baseline potassium ≥3.6 mmol/L, 4 mg QD, Day 42) was 4.3 mmol/L, the “plasma potassium concentration, mean” value ([1]; baseline potassium ≥3.6 mmol/L, 4 mg QD, Day 56) was 4.3 mmol/L and the “plasma potassium concentration, mean” value ([1]; baseline potassium ≥3.6 mmol/L, 4 mg QD, Day 70 (placebo withdrawal)) was 4.0 mmol/L. For the same substance, the “plasma potassium concentration, mean” value ([1]; baseline potassium ≥3.6 mmol/L, 8 mg QD, Day 1 (baseline)) was 3.8 mmol/L, the “plasma potassium concentration, mean” value ([1]; baseline potassium ≥3.6 mmol/L, 8 mg QD, Day 14) was 4.3 mmol/L and the “plasma potassium concentration, mean” value ([1]; baseline potassium ≥3.6 mmol/L, 8 mg QD, Day 28) was 4.1 mmol/L. The “plasma potassium concentration, mean” value ([1]; baseline potassium ≥3.6 mmol/L, 8 mg QD, Day 42) was 3.9 mmol/L, the “plasma potassium concentration, mean” value ([1]; baseline potassium ≥3.6 mmol/L, 8 mg QD, Day 56) was 4.1 mmol/L and the “plasma potassium concentration, mean” value ([1]; baseline potassium ≥3.6 mmol/L, 8 mg QD, Day 70 (placebo withdrawal)) was 3.9 mmol/L. The “plasma potassium concentration, mean” value ([1]; baseline potassium ≥3.6 mmol/L, 12 mg QD, Day 1 (baseline)) was 3.9 mmol/L, the “plasma potassium concentration, mean” value ([1]; baseline potassium ≥3.6 mmol/L, 12 mg QD, Day 14) was 4.0 mmol/L and the “plasma potassium concentration, mean” value ([1]; baseline potassium ≥3.6 mmol/L, 12 mg QD, Day 28) was 4.1 mmol/L. For the same substance, the “plasma potassium concentration, mean” value ([1]; baseline potassium ≥3.6 mmol/L, 12 mg QD, Day 42) was 4.0 mmol/L, the “plasma potassium concentration, mean” value ([1]; baseline potassium ≥3.6 mmol/L, 12 mg QD, Day 56) was 3.9 mmol/L and the “plasma potassium concentration, mean” value ([1]; baseline potassium ≥3.6 mmol/L, 12 mg QD, Day 70 (placebo withdrawal)) was 3.7 mmol/L. The “plasma potassium concentration, mean” value ([1]; baseline ≤3.0 mmol/L despite potassium supplements, all doses QD, Day 1 (baseline)) was 3.2 mmol/L, the “plasma potassium concentration, mean” value ([1]; baseline ≤3.0 mmol/L despite potassium supplements, all doses QD, Day 14) was 4.0 mmol/L and the “plasma potassium concentration, mean” value ([1]; baseline ≤3.0 mmol/L despite potassium supplements, all doses QD, Day 28) was 4.1 mmol/L. For the same substance, the “plasma potassium concentration, mean” value ([1]; baseline ≤3.0 mmol/L despite potassium supplements, all doses QD, Day 42) was 4.2 mmol/L, the “plasma potassium concentration, mean” value ([1]; baseline ≤3.0 mmol/L despite potassium supplements, all doses QD, Day 56) was 4.0 mmol/L and the “plasma potassium concentration, mean” value ([1]; baseline ≤3.0 mmol/L despite potassium supplements, all doses QD, Day 70 (placebo withdrawal)) was 3.8 mmol/L. For the same substance, the “effect on plasma potassium concentration” value [1, 3] was “rapid and significant (p<0.001) increase in plasma potassium concentrations”, the “plasma potassium concentration, mean” value ([1]; in presence of potassium supplements, all doses QD, Day 1 (baseline)) was 3.3 mmol/L and the “plasma potassium concentration, mean” value ([1]; in presence of potassium supplements, all doses QD, Day 14) was 4.1 mmol/L. For the same substance, the “plasma potassium concentration, mean” value ([1]; in presence of potassium supplements, all doses QD, Day 28) was 4.0 mmol/L, the “plasma potassium concentration, mean” value ([1]; in presence of potassium supplements, all doses QD, Day 42) was 4.1 mmol/L and the “plasma potassium concentration, mean” value ([1]; in presence of potassium supplements, all doses QD, Day 56) was 4.1 mmol/L. For the same substance, the “plasma potassium concentration, mean” value ([1]; in presence of potassium supplements, all doses QD, Day 70 (placebo withdrawal)) was 3.8 mmol/L, the “office blood pressure (oSBP), mean” value [2, 4] was 146.95 mmHg and the “office blood pressure (oSBP), median” value [2, 4] was 144.00 mmHg. The “office blood pressure (oSBP), mean” value ([2]; 4 mg once daily, n=10, Day 14) was 134.55 mmHg, the “office blood pressure (oSBP), median” value ([2]; 4 mg once daily, n=10, Day 14) was 136.25 mmHg and the “office blood pressure (oSBP), mean” value ([2]; 4 mg once daily, n=10, Day 28) was 133.70 mmHg. The “office blood pressure (oSBP), median” value ([2]; 4 mg once daily, n=10, Day 28) was 130.50 mmHg, the “office blood pressure (oSBP), mean” value ([2]; 4 mg once daily, n=10, Day 42) was 134.90 mmHg and the “office blood pressure (oSBP), median” value ([2]; 4 mg once daily, n=10, Day 42) was 132.75 mmHg. For the same substance, the “office blood pressure (oSBP), mean” value ([2]; 4 mg once daily, n=10, Day 56) was 133.00 mmHg, the “office blood pressure (oSBP), median” value ([2]; 4 mg once daily, n=10, Day 56) was 133.75 mmHg and the “office blood pressure (oSBP), mean” value [2, 5] was 142.20 mmHg. The “office blood pressure (oSBP), median” value [2, 5] was 145.25 mmHg, the “office blood pressure (oSBP), mean” value [2, 6] was 148.00 mmHg and the “office blood pressure (oSBP), median” value [2, 6] was 147.00 mmHg. For the same substance, the “office blood pressure (oSBP), mean” value ([2]; 8 mg once daily, n=12, Day 14) was 137.88 mmHg, the “office blood pressure (oSBP), median” value ([2]; 8 mg once daily, n=12, Day 14) was 137.50 mmHg and the “office blood pressure (oSBP), mean” value ([2]; 8 mg once daily, n=12, Day 28) was 135.08 mmHg. For the same substance, the “office blood pressure (oSBP), median” value ([2]; 8 mg once daily, n=12, Day 28) was 133.25 mmHg, the “office blood pressure (oSBP), mean” value ([2]; 8 mg once daily, n=12, Day 42) was 137.83 mmHg and the “office blood pressure (oSBP), median” value ([2]; 8 mg once daily, n=12, Day 42) was 134.50 mmHg. For the same substance, the “office blood pressure (oSBP), mean” value ([2]; 8 mg once daily, n=12, Day 56) was 134.42 mmHg, the “office blood pressure (oSBP), median” value ([2]; 8 mg once daily, n=12, Day 56) was 135.75 mmHg and the “office blood pressure (oSBP), mean” value [2, 7] was 142.46 mmHg. The “office blood pressure (oSBP), median” value [2, 7] was 139.75 mmHg, the “office blood pressure upon drug withdrawal” value ([2]; Day 70, after 14-day placebo withdrawal) was “blood pressure values returned towards baseline levels” and the “effect on office blood pressure” value [2, 3] was “rapid and significant (p≤0.001) decrease in office blood pressure”.
